Test results: PMC6359039, “Pharmacokinetics, Tissue Distribution, Plasma Protein Binding Studies of 10-Dehydroxyl-12-Demethoxy-Conophylline, a Novel Anti-Tumor Candidate, in Rats” (Molecules, 2019)
Like-named read-outs stand apart in the source and are kept apart here.

Legend:
[1] = Plasma pharmacokinetics in rats after i.v. and i.g. dosing (UPLC-FLR); assay type: in vivo, Sprague Dawley rats; set-up: CL: unit not given here; conditions: rat; for MRT: Sprague-Dawley; for pharmacokinetic model fit: plasma concentration–time data, DAS 2.0
Experimental: Sprague Dawley rats (half male and female) with a body mass 180–220 g were provided by the Laboratory Animal Center of Medical University of Anhui (Hefei, China), Certificate number: SCXK(wan) 2015-002. Animals were housed under controlled conditions (temperature 22 ± 2 °C, humidity 50% ± 5%, 12 h dark/light cycle) with standardized diet and acclimatized for 7 days, prior to the experiments. All protocols and care of the rats were performed in strict compliance with the Guidelines for the Use of Laboratory Animals (National Research Council) and authorized by the Animal Care and Use Committee of Anhui University of Chinese Medicine.
Chromatographic separation was performed using a UPLC system (Waters ACQUITY-CLASS. US) with an analytical column Kinetex (C18, 1.7 μm, 2.1 mm × 100 mm; Phenomenex; California; CA, USA) at 25 °C. Water and methanol (75:25) were used as the isocratic elution, running at a flow rate of 0.2 mL/min. The detector was used with fluorescence (FLR) detection with a fluorescence excitation wavelength of 330 nm and a fluorescence emission wavelength of 439 nm.
The rat intravenous doses were determined as 4, 8, and 12 mg/kg, and the intragastric administration dose was 20 mg/kg. These were selected to investigate whether the pharmacokinetics of the drug was linear over the range of doses used. In all, 18 (SD) rats (half male and female) were randomly divided into three groups, namely, high-, medium- and low-dose groups. The rats fasted 12 h be before the administration of 10-dehydroxyl-12-demethoxy-conophylline but with free access to water. 10-dehydroxyl-12-demethoxy-conophylline was dissolved in normal saline and added with 5% ethanol. Amounts of 4, 8, and 12 mg/kg (0.5 mL/100 g) were injected into the tail vein of the rat, and 0.3 mL of blood was taken from the eyelid before administration (0 min) and 2, 5, 15, 30, 60, 90, 120, 180, 240, and 300 min after intravenous administration. Another 6 rats (half male and female) were administered an intragastrical (i.g.) dose of 20 mg/kg. Blood samples (0.3 mL) were collected by retro-orbital bleeding into heparinized 1.5mL tubes before administration (0 min) and 15, 30, 60, 90, 120, 240, 480, and 600 min after intragastric administration. Immediately after collection, the blood samples were centrifuged at 3500 rpm for 10 min to obtain plasma, and originating supernatants were also stored at −70 °C until analysis.
Plasma samples (90 μL) were spiked with 10 μL internal standard (100 ng/mL) and extracted with 300 μL of methanol by vortexing for 10 min. The plasma and aqueous phases were separated by centrifugation at 14,000 rpm for 10 min. The supernatants were transferred to another tube and evaporated to dryness at 50 °C. The residue was dissolved in 100 μL methanol and vortexed. A 2 μL aliquot of the solution was injected into the UPLC system for analysis.
The pharmacokinetic parameters were calculated using the pharmacokinetic software DAS 2.0 (Chinese Pharmacological Association, Beijing, China) by non-compartmental and compartmental analysis method. The elimination half-life (t1/2) was determined by linear regression of the terminal portion (last the points) of the plasma concentration–time curve. The area under the plasma concentration–time curve from zero to the last measurable plasma concentration point (AUC0-t) was calculated using the linear trapezoidal method. Extrapolation from time zero to infinity (AUC0-∞) was calculated as follows:AUC0-∞ = AUC0-t + Ct/ke,(2) where Ct is the last measurable plasma concentration and ke is the terminal elimination rate constant. […]

[2] = Plasma protein binding by equilibrium dialysis, human plasma; assay type: in vitro ADME; conditions: read-out: protein binding degree (converted)
Experimental: Protein binding was determined in vitro by equilibrium dialysis of plasma of rats or human serum albumin. Blank dialysate, internal dialysate, and external dialysate were prepared separately. The internal dialysate was prepared by taking 0.4 mL of blank plasma and adding 100 μL of the 10-dehydroxyl-12-demethoxy-conophylline series standard solution to prepare the equivalent of 10-dehydroxyl-12-demethoxy-conophylline plasma concentrations of 0.078, 0.156, 0.312, 0.625, 1.250, 2.500, 5.000, and 20.000 μg/mL simulating biological samples. The external dialysate was prepared by taking 0.4 mL of blank dialysate and adding 100 μL of the 10-dehydroxyl-12-demethoxy-conophylline series standard solution to prepare the equivalent of 10-dehydroxyl-12-demethoxyconophylline plasma concentrations of […] simulating dialysate samples. The protein binding rate of 10-dehydroxyl-12-demethoxy-conophylline in plasma was measured using the equilibrium dialysis method in this experiment. The concentration of unbound compound (B) and bound compound to protein (A) were calculated as follows:F = (A − B)/A,(1) where F is the bounded fraction, A is the compound concentration in the plasma compartment, and B is the concentration of the compound in the phosphate buffer compartment.

SMMC-7721 = tested on: SMMC-7721; set-up: method as in PMID 29772302; conditions: cited from earlier work
A-549 = tested on: A-549; set-up: method as in PMID 29772302; conditions: cited from earlier work
MCF-7 = tested on: MCF-7; set-up: method as in PMID 29772302; conditions: cited from earlier work
[3] = both sexes, Sprague Dawley, plasma, iv, 4 mg/kg i.v., mean ± SD, n = 6
[4] = both sexes, Sprague Dawley, plasma, iv, 8 mg/kg i.v., mean ± SD, n = 6
[5] = both sexes, Sprague Dawley, plasma, iv, 12 mg/kg i.v., mean ± SD, n = 6
[6] = both sexes, Sprague Dawley, plasma, po, 20 mg/kg i.g., mean ± SD, n = 6
[7] = 12 mg/kg i.v., mean ± SD, n = 6
[8] = 20 mg/kg i.g., mean ± SD, n = 6

CC[C@@]12CC(C(=O)OC)=C3Nc4cc5c(cc4[C@@]34CCN(C[C@H]3O[C@H]31)[C@@H]24)[C@@H]1C(O5)[C@@H](O)[C@@]2(CC)CC(C(=O)OC)=C3Nc4cc(OC)ccc4[C@@]34CCN1[C@@H]24 (some centres unmarked) [10-dehydroxyl-12-demethoxy-conophylline, 10-Dehydroxyl-12-demethoxy-conophylline]
AUC(0-inf) ([1]; both sexes, Sprague Dawley, plasma, iv, 4 mg/kg i.v.): 1140 ng·h/mL
AUC(0-t) [1, 3]: 988 ng·h/mL
clearance [1, 3]: 41 ± 70 mL/min/kg
AUC(0-inf) [1, 4]: 2190 ng·h/mL
AUC(0-t) [1, 4]: 2150 ng·h/mL
clearance [1, 4]: 39 ± 120 mL/min/kg
AUC(0-inf) ([1]; both sexes, Sprague Dawley, plasma, iv, 12 mg/kg i.v.): 5090 ng·h/mL
AUC(0-t) [1, 5]: 3910 ng·h/mL
clearance [1, 5]: 41 ± 50 mL/min/kg
bioavailability ([1]; both sexes, Sprague Dawley, plasma, oral, 20 mg/kg i.g. versus i.v., read-out: absolute oral bioavailability): 15.8%
AUC(0-inf) [1, 6]: 1240 ng·h/mL
AUC(0-t) [1, 6]: 867 ng·h/mL
Tmax ([1]; both sexes, Sprague Dawley, plasma, iv, 4 mg/kg, 4 mg/kg i.v., mean ± SD, n = 6): 0.0333 h
half-life ([1]; both sexes, Sprague Dawley, plasma, iv, 4 mg/kg, 4 mg/kg i.v., mean ± SD, n = 6, read-out: t1/2β): 1.14 ± 0.0548 h
Tmax ([1]; both sexes, Sprague Dawley, plasma, iv, 8 mg/kg, 8 mg/kg i.v., mean ± SD, n = 6): 0.0333 h
half-life ([1]; both sexes, Sprague Dawley, plasma, iv, 8 mg/kg, 8 mg/kg i.v., mean ± SD, n = 6, read-out: t1/2β): 1.11 ± 0.0759 h
Tmax ([1]; both sexes, Sprague Dawley, plasma, iv, 12 mg/kg, 12 mg/kg i.v., mean ± SD, n = 6): 0.0333 h
half-life ([1]; both sexes, Sprague Dawley, plasma, iv, 12 mg/kg, 12 mg/kg i.v., mean ± SD, n = 6, read-out: t1/2β): 1.16 ± 0.0721 h
half-life ([1]; both sexes, Sprague Dawley, plasma, iv, 12 mg/kg, i.v. dosing at 4, 8 and 12 mg/kg, read-out: half-life t1/2α of intravenous administration): ~0.117 h
half-life ([1]; both sexes, Sprague Dawley, plasma, iv, 12 mg/kg, i.v. dosing at 4, 8 and 12 mg/kg, read-out: t1/2β of intravenous administration): ~1.15 h
Tmax ([1]; both sexes, Sprague Dawley, plasma, po, 20 mg/kg, 20 mg/kg i.g., mean ± SD, n = 6): ~1.5 h
half-life ([1]; both sexes, Sprague Dawley, plasma, po, 20 mg/kg, 20 mg/kg i.g., mean ± SD, n = 6, read-out: t1/2β): 1.17 ± 0.0447 h
MRT ([1]; both sexes, plasma, iv, 4 mg/kg i.v., mean ± SD, n = 6): 1.52 h
MRT ([1]; both sexes, plasma, iv, 8 mg/kg i.v., mean ± SD, n = 6): 1.42 h
MRT ([1]; both sexes, plasma, iv, 12 mg/kg i.v., mean ± SD, n = 6): 1.36 h
MRT ([1]; both sexes, plasma, po, 20 mg/kg i.g., mean ± SD, n = 6): 4.28 h
AUC0–∞ ([1]; 4 mg/kg i.v., mean ± SD, n = 6): 68.478 ± 8.167 µg·min/mL
V ([1]; 4 mg/kg i.v., mean ± SD, n = 6): 2.096 ± 0.0465 L/kg
t1/2α ([1]; 4 mg/kg i.v., mean ± SD, n = 6): 0.1164 ± 0.03832 h
V ([1]; 8 mg/kg i.v., mean ± SD, n = 6): 1.906 ± 0.012 L/kg
t1/2α ([1]; 8 mg/kg i.v., mean ± SD, n = 6): 0.1185 ± 0.0318 h
AUC0–∞ [1, 7]: 305.616 ± 17.432 µg·min/mL
V [1, 7]: 2.014 ± 0.019 L/kg
t1/2α [1, 7]: 0.1174 ± 0.03417 h
CL [1, 8]: 0.046 ± 0.013
V [1, 8]: 4.881 ± 2.390 L/kg
t1/2α [1, 8]: 0.87358 ± 0.032 h
t1/2β of intravenous administration ([1]; i.v. dosing at 4, 8 and 12 mg/kg): about 68 min
pharmacokinetic model fit [1]: fit to a two-room model
pharmacokinetic model fit ([1]; listed as 10-dehydroxyl-12-demethoxyconophylline): consistent with a two-compartment pharmacokinetic model
linear correlation between AUC0→t and dose (r) ([1]; single i.v. dose 4, 8 and 12 mg/kg): 0.9821
fraction unbound at 1 µg/mL ([2]; 1.00 µg/mL): 0.131
fraction unbound at 2.5 µg/mL ([2]; 2.50 µg/mL): 0.159
fraction unbound at 5 µg/mL ([2]; 5.00 µg/mL): 0.153
inhibitory activity on SMMC-7721 tumor cell line (SMMC-7721): significant inhibitory activity
inhibitory activity on A-549 tumor cell line (A-549): significant inhibitory activity
inhibitory activity on MCF-7 tumor cell line (MCF-7): significant inhibitory activity
